According to patent US8603755B2, “Resistance to auxinic herbicides” (Dow AgroSciences, LLC., priority 2006, dated 2013):

Key:
Format in all cases: in vivo
[1] = system: Arabidopsis Group 1 line R127; assay: Root growth dose response of Group 1 line R127
Protocol: (§1) The dose responses of root growth of the mutant lines treated with a variety of auxins were measured to define the level and chemical spectrum of resistance in detail.
Four additional herbicidal compounds were also tested on the Group 1 line, R127.

[2] = system: Arabidopsis mutant axr1-3; assay: Root growth response of mutant axr1-3
Protocol: (§2) FIGS. 5A-5C. Comparison of the effect of DAS534 and 2,4-D on previously characterized mutants. Measurements were performed as described in FIG. 2. Typical root lengths for untreated controls were 20, 39 and 31 mm for tir1-1, axr2-1 and axr1-3 plants respectively. (FIG. 5A) Effect of DAS534 on edm1 and R051. The deletion mutant line edm1 lacks seven genes (At4g11220 through At4g11280) including SGT1b (Tor et al., Plant Cell 14: 993-1003, 2002). Effect of DAS534 (FIG. 5B) and 2,4-D (FIG. 5C) on axr1-3, axr2-1 and tir1-1 compared with R009 and R051.
The mutant axr1-3 is defective in the rubinylation mechanism required to activate SCF complexes. […] The axr1-3 mutant was also very resistant to picloram (160-fold). […] This is consistent with its general role in the activation of SCF complexes (Schwechheimer et al., Plant Cell. 14(10):2553-2563, 2002).

[3] = system: Arabidopsis mutant line R090; assay: Seedling resistance screen, line R090; conditions: line R090, allelic to axr1-3
Protocol: (§3) To identify mutants resistant to picolinate auxins, EMS-mutagenized M2 seedlings were screened for resistance to DAS534, a 6-phenylpicolinate auxin (Compound 173 in WO 03/011853A1). The seedlings were grown on agarose medium containing 10 nM DAS534. This concentration was sufficient to produce marked auxinic effects on the seedlings including significant inhibition (60%) of root growth. From a total of 780,100 EMS M2 seedlings, 125 putative resistant mutants were identified by visual inspection. Seeds were recovered from 33 of these plants. Selection of lines for further study was based on the strength of resistance, elimination of potential siblings and the health and fertility of adult plants.
The mutants were crossed with wild-type Col-0 plants and the progeny were analyzed for resistance to DAS534. […] To determine the number of genetic loci identified in this screen, complementation tests were performed by crossing the herbicide-resistant mutants with each other and the known auxin-resistant mutant axr1-3 in a pair-wise fashion. […] Complementation Group 1 contained the mutants R009, R024, R045 and R127, and complementation Group 2 contained the mutants R051, R107 and R118. All seven selectively-resistant mutant lines were phenotypically normal when grown on agarose medium or in soil and they had normal fertility. […]

[4] = system: Arabidopsis mutant tir1-1; assay: Root growth response of mutant tir1-1
Protocol: as §2

[5] = system: wild type Col-0 Arabidopsis plants; assay: Foliar spray application in the greenhouse, wild type; conditions: 12 days after treatment
Protocol: (§4) FIGS. 8A-8C show a comparison of the effect of a foliar application of 200 g/ha picloram (FIG. 8A), 200 g/ha aminopyralid (FIG. 8B) or 50 g/ha 2,4-D (FIG. 8C) on wild type Col-0 and mutant R009 Arabidopsis plants. Pictures were taken 12 days after treatment of 17-day old plants.
(§5) Arabidopsis seedlings were grown for two weeks in a growth chamber (23° C.; continuous light at 120-150 μE m^−2 sec^−1), then taken to the greenhouse for three days after which plants were sprayed with herbicide using a track-sprayer to deliver the appropriate rate. Plants were then grown in the greenhouse for 12 days (22° C. under supplemented light with a 14 h: 10 h light-dark cycle) prior to photography and evaluation. […] Thus the chemical selectivity of resistance seen in seedling plate assays is maintained in adult plants with foliar exposure to the auxin herbicides.

[6] = system: Group 1 mutant R009 Arabidopsis plants; assay: Foliar spray application in the greenhouse, AFB5 mutant; conditions: 12 days after treatment
Protocol: as §4, §5

[7] = system: Arabidopsis Group 1 (afb5) and Group 2 (sgt1b) mutant lines; assay: Root growth dose response of picolinate auxin resistant mutants, complementation Groups 1 and 2
Protocol: FIGS. 1A-1D. […] Root lengths of Arabidopsis seedlings were measured 8 days after seeding on plates containing a range of concentrations of the test compounds and are plotted as a percentage of the root length of untreated plants in the same experiment. […] The symbols used for wild type, R009 from complementation Group 1 and R051 from complementation Group 2 are denoted in FIG. 1A.
To identify mutants resistant to picolinate auxins, EMS-mutagenized M2 seedlings were screened for resistance to DAS534, a 6-phenylpicolinate auxin (Compound 173 in WO 03/011853A1). The seedlings were grown on agarose medium containing 10 nM DAS534. […] Selection of lines for further study was based on the strength of resistance, elimination of potential siblings and the health and fertility of adult plants.
as §1

[8] = system: Arabidopsis seedlings (wild type / EMS M2); assay: Seedling plate assay on agarose medium, root growth and morphology
Protocol: FIGS. 1A-1D. Differential effects of auxins on root growth of mutants from complementation Groups 1 and 2. Root lengths of Arabidopsis seedlings were measured 8 days after seeding on plates containing a range of concentrations of the test compounds and are plotted as a percentage of the root length of untreated plants in the same experiment. Typical root lengths for untreated controls were 21, 21 and 24 mm for wild-type, Group 1, and Group 2 plants respectively. The symbols used for wild type, R009 from complementation Group 1 and R051 from complementation Group 2 are denoted in FIG. 1A.
as §3

[9] = system: Arabidopsis deletion mutant line edm1; assay: Root growth response of deletion mutant edm1; conditions: edm1, data not shown
Protocol: as §2
The R051 mutation was mapped to a 100 kb interval on chromosome 4 around 36 cM between markers C4—36 and C4—37 (FIG. 3). This interval contains 17 genes including At4g11260 which encodes the tetratricopeptide-repeat containing protein, SGT1b (SEQ ID NO: 4). […] The deletion mutant line edm1 lacks seven genes (At4g11220 through At4g11280) including SGT1b (Tor et al., Plant Cell 14: 993-1003, 2002). […] It was also very cross-resistant to picloram (20-fold, data not shown) similar to the Group 2 mutants. To determine if the DAS534-resistant mutants in complementation Group 2 contained mutations in SGT1b, At4g11260 was PCR amplified from genomic DNA from all three of the mutants. […]

O=C(O)Cc1cccc2ccccc12 [1-naphthylacetic acid]
resistance or difference in response, in words [1]: no resistance

O=C(O)COc1ccc(Cl)cc1Cl [2,4-D]
level of resistance, in words [2]: high level of resistance | resistance of line R090 [3]: robust resistance | level of resistance, in words [4]: significantly lower levels of resistance to 2,4-D than axr1 | effect of foliar spray application ([5]; 50 g/ha, wild type): auxinic symptoms and growth reduction | effect of foliar spray application ([6]; 50 g/ha): auxinic symptoms and growth reduction | cross resistance of DAS534-resistant lines ([7]; 0.045 μM 2,4-D, seven lines R009, R024, R045, R127, R051, R107, R118): negligible resistance | resistance of the mutant lines, in words ([7]; root growth dose response, both complementation groups): negligible resistance

Nc1c(F)c(-c2ccc(Cl)cc2)nc(C(=O)O)c1Cl [DAS534, 4-amino-3-chloro-5-fluoro-6-(4-chlorophenyl)pyridine-2-carboxylic acid]
level of resistance, in words [2]: high level of resistance | resistance of line R090 [3]: robust resistance | level of resistance, in words [4]: modest level of resistance | inhibition at 0.01 µM ([8]; Arabidopsis thaliana, 10 nM DAS534 in agarose medium): 60% | visible auxinic effects on seedlings ([8]; wild-type plants, 5 nM DAS534): slight agravitopism, have elongated hypocotyls and are unable to fully expand their cotyledons | hypocotyl elongation and cotyledon expansion ([7]; Group 1 mutant R127 and Group 2 mutant R051, 5 nM DAS534): unaffected

Nc1cc(Cl)nc(C(=O)O)c1Cl [aminopyralid]
effect of foliar spray application ([5]; 200 g/ha, wild type Col-0): profound morphological effects and severely inhibited plant growth | effect of foliar spray application ([6]; 200 g/ha): minimal effect

O=C(O)c1nc(Cl)ccc1Cl [clopyralid]
fold resistance [1]: 50 fold

COc1c(Cl)ccc(Cl)c1C(=O)O [dicamba]
resistance or difference in response, in words [1]: no resistance

O=C(O)c1ccccc1C(=O)Nc1cccc2ccccc12 [napthylphthalamic acid]
resistance or difference in response, in words [1]: no difference in response

Nc1c(Cl)c(Cl)nc(C(=O)O)c1Cl [picloram]
cross-resistance [9]: 20 fold | fold resistance [2]: 160 fold | level of resistance, in words [4]: slightly more resistant | effect of foliar spray application ([5]; 200 g/ha, wild type Col-0): profound morphological effects and severely inhibited plant growth | effect of foliar spray application ([6]; 200 g/ha): minimal effect
